The source of these data is article PMC6271933, “Evaluation of the Toxicity of 5-Aryl-2-Aminoimidazole-Based Biofilm Inhibitors against Eukaryotic Cell Lines, Bone Cells and the Nematode Caenorhabditis elegans” (Molecules, 2014).

In series [1] the test system is mouse ES cells. Also noted: method as in PMID 2998604. The following applies: by inhibiting matrix metalloproteinase 2; cited from earlier work.
Series [2] concerns GH4C1 rat pituitary and N2A mouse neuroblastoma cell lines. Also noted: method as in PMID 18493660. As to conditions: compared with parent molecule bromoageliferin; cited from earlier work.
Series [3] deals with HaCaT keratinocyte cells. Also noted: method as in PMID 22292413. The following applies: cited from earlier work.
Series [4] relates to Caenorhabditis elegans. Also on record: method as in PMID 22292413. As to conditions: cited from earlier work.
Series [5] concerns epidermal growth factor-stimulated DNA synthesis in squamous cell tumors. As to conditions: cited from earlier work.
Series [6] deals with A-431 cells. Also on record: method as in PMID 9748366, PMID 12939464. The following applies: cited from earlier work.
For series [7], the system named is calcium entry in PC12 cells. Also noted: method as in PMID 15777959. As to conditions: cited from earlier work.
Series [8] has as its system human osteoblasts (OB). Briefly: Metabolic activity of bone cells, MTT staining. It counts as cell-based. The following applies: 12.5 µM, 6 days exposure, MTT staining (results not shown). How it is done:
(§1) The cytotoxicity of the compounds was measured on cell cultures of two cell types represented in bone tissue, namely human osteoblasts (OB) and human bone marrow-derived mesenchymal stem cells (MSC). These tests were conducted according to ISO 10993-5 cytotoxicity standard. The cells were seeded in a 96-well plate at a density of 5000 cells/cm^2 in cell culture media (Advanced DMEM, 10% FBS, 1× GlutaMAX, 0.05 mg/mL gentamicin) and allowed to attach overnight. The next day the test compounds (12.5 μM) and controls were added to the cells (negative controls were cell culture medium and cell culture medium with 0.5% DMSO background, positive control was 0.05% phenol to show a cytotoxic effect) and incubated for 2h, 48h and 6 days and at each time-point the numbers of viable and dead cells were determined by trypan blue staining, and the metabolic activity was determined with MTT staining.
(§2) MTT: the medium was removed from the wells and 100 μL of medium, supplemented with 10% serum and 0.5 mg/mL MTT was added to the cells. The cells were incubated overnight at 37 °C and 5% CO2. The next day the medium with MTT was removed and 100 μL acidic isopropanol was added. The cells were then centrifuged at 2300 g and 50 μL of the supernatant was transferred to a new 96-well plate. The absorbance was measured at 570 nm and the background was measured at 660 nm. Four wells per condition were examined.

Series [9] concerns human bone marrow-derived mesenchymal stem cells (MSC). Briefly: Metabolic activity of bone cells, MTT staining. The following applies: 12.5 µM, 6 days exposure, MTT staining (results not shown). It counts as cell-based. How it is done: as §1, §2
The test system of series [10] is mesenchymal stem cells (MSC). Put plainly: Calcium assay for osteogenic differentiation potential. The following applies: 12.5 µM, 5 weeks (Figure 6) or 3 weeks (methods) of exposure. Type of series: cell-based, human. As for the experimental part: (§3) MSC and OB were cultured in osteogenic medium for 3 and 5 weeks, respectively. The experimental groups included a positive solvent control (osteogenic medium with 0.5% DMSO background), a negative control (medium without osteogenic supplements) and treated samples (osteogenic medium, 0.5% DMSO background and 12.5 µM of test compound). Cell cultures were extracted by 5% trichloroacetic acid (500 μL per sample). O-Cresolphtalein complex was added (Calcium CPC LiquiColor Test®; Stanbio Laboratory, Boerne, TX, USA), and the calcium content was determined spectrophotometrically at 550 nm.
(§4) To determine the DNA content, cells were washed with PBS, and 200 μL of digestion buffer (10 mM Tris, 1 mM EDTA, 0.1% Triton X-100, 0.1 mg/mL proteinase K) was added. Samples were incubated in digestion buffer overnight at 56 °C. The supernatants were drawn off and PicoGreen® dye (Molecular Probes, Eugene, OR, USA) was added to the samples in 1:1 ratio and read in a fluorescent plate reader (excitation 485 nm and emission 528 nm). DNA values were used to normalize the calcium content. Four wells per condition were examined, and two samples from each well were taken for each assay.

For series [11], the system named is osteoblasts (OB). The series is described as above. Type of series: cell-based, human. The following applies: 12.5 µM, 3 weeks (Figure 6) or 5 weeks (methods) of exposure. How it is done:
as §3, §4

In series [12] the test system is murine leukemia (L1210). Put plainly: Cytostatic activity against tumor cell lines (cell number by Coulter counter). The following applies: Mus musculus, L1210, 48 h; concentration inhibiting cell proliferation by 50%; two days incubation; mean of three repeats. It counts as cell-based. As for the experimental part:
(§5) The IC50 was defined as the compound concentration required to inhibit cell proliferation by 50%. The therapeutic index (TI) was calculated as the ratio of the compound concentration producing toxicity (IC50) to the concentration needed to exert the desired ‘therapeutic’ effect on biofilms of Salmonella and Pseudomonas, indicated by the BIC50 (dose needed to prevent biofilm formation by 50%). The higher the therapeutic index, the broader the safety window of the compound.
(§6) Murine leukemia (L1210), human T-lymphocyte (CEM) and human cervix carcinoma (HeLa) were suspended at 300,000–500,000 cells/mL of culture medium, and 100 µL of a cell suspension was added to 100 µL of an appropriate dilution of the test compounds in 200 µL-wells of 96-well microtiter plates. After incubation at 37 °C for two (L1210), three (CEM) or four (HeLa) days, the cell number was determined using a Coulter counter. The IC50 was defined as the compound concentration required to inhibit cell proliferation by 50%.

Series [13] relates to human cervix carcinoma (HeLa). The description is as above. Type of series: cell-based. The following applies: 96 h, concentration inhibiting cell proliferation by 50%, four days incubation, mean of three repeats. How it is done:
as §5, §6

Series [14] has as its system human T-lymphocyte (CEM). The description is as above. Type of series: cell-based. The following applies: 72 h, concentration inhibiting cell proliferation by 50%, three days incubation, mean of three repeats. As for the experimental part: as §5, §6
The test system of series [15] is S. Typhimurium biofilm. As to conditions: concentration preventing biofilm formation (at 25 °C) by 50%; as previously reported ref 13, 14, 15, 16; read-out: BIC50 S. Typhimurium; cited from earlier work.
Series [16] concerns C. elegans. It counts as in vivo, Caenorhabditis elegans. As to conditions: for C. elegans % survival at 25 µM: after 7 days relative to viability at day 0, mean of at least two repeats; for effect on C. elegans survival at 100 µM / effect on C. elegans survival at 200 µM: 7 days of exposure. How it is done:
Eggs of a double mutant (glp-4Dsek-1D) of C. elegans were grown on NGM/OP50 agar plates (NGM agar plates on the surface inoculated with 100 µL of an overnight culture of OP50 Escherichia coli and stored at 4 °C until use) at 25 °C until all nematodes had reached the L4 stage. Worms were collected and washed with M9 buffer (3 g/L KH2PO4, 6 g/L Na2HPO4, 5 g/L NaCl, 1 mM MgSO4). For toxicity testing, 40 to 50 worms were suspended in 250 μL M9 (supplemented with 10 µg/mL cholesterol, 75 µg/mL ampicillin and 100 µg/mL kanamycin) buffer in each well of 24-well microtiter plates, in the presence or absence (0.5% DMSO control) of 25, 100 or 200 µM of the test compounds and grown for 7 days at 25 °C. The percentage survival of the worms in the presence or absence of anti-biofilm compounds was calculated after 7 days relative to their viability at day 0.

Series [17] relates to human osteoblasts (OB). Put plainly: Cytotoxicity against bone cells, trypan blue staining. Type of series: cell-based. As to conditions: for effect on proliferation and viability: 12.5 µM, after 48h and after 6 days of exposure, trypan blue. How it is done: (§7) The cytotoxicity of the compounds was measured on cell cultures of two cell types represented in bone tissue, namely human osteoblasts (OB) and human bone marrow-derived mesenchymal stem cells (MSC). These tests were conducted according to ISO 10993-5 cytotoxicity standard. The cells were seeded in a 96-well plate at a density of 5000 cells/cm^2 in cell culture media (Advanced DMEM, 10% FBS, 1× GlutaMAX, 0.05 mg/mL gentamicin) and allowed to attach overnight. […]
(§8) Trypan blue staining: the medium was removed from the wells, and 1/3 trypan blue in DMEM medium was added to the cells, incubated for 3 min, after which trypan blue was removed and DMEM medium was added to the wells. In each of four wells, two microscopy fields were counted for viable (transparent) and dead (blue) cells.

Series [18] concerns human bone marrow-derived mesenchymal stem cells (MSC). The series is described as above. Type of series: cell-based. The following applies: for effect on proliferation and viability: 12.5 µM, after 48h and after 6 days of exposure, trypan blue. As for the experimental part: as §7, §8
The test system of series [19] is P. aeruginosa biofilm. The following applies: concentration preventing biofilm formation (at 25 °C) by 50%; as previously reported ref 13, 14, 15, 16; read-out: BIC50 P. aeruginosa; cited from earlier work.
Series [20] deals with murine-grafted tumors, including P388 and L1210 leukemias, and solid tumors. Also noted: method as in PMID 1783523, PMID 15133248. The following applies: cited from earlier work.
The test system of series [21] is several tumor cell lines. Also on record: method as in PMID 1783523, PMID 15133248. As to conditions: cited from earlier work.

Values joined by “and” are separate entries in the source; they are usually repeats but may differ in a detail not shown here. Identical values can stand only once. “Also recorded” adds a separate entry of the source.

Turning to `Nc1nc2c(-c3cc(Br)c(Br)[nH]3)nccc2[nH]1` [2d, ageladine A], the “angiogenesis in a model using mouse ES cells” value in series [1] was “reduce angiogenesis”.
`NC[C@@H]1Cc2[nH]c(N)nc2C[C@@H]1CN` [2o]: the “cytotoxicity in GH4C1 rat pituitary and N2A mouse neuroblastoma cell lines” value in series [2] is given as “lack the cytotoxicity”.
In the case of `Cn1c(C(=O)NCCCc2c[nH]c(N)n2)cc(Br)c1Br` [2p], the “effect on HaCaT keratinocyte cells” value in series [3] is recorded as “differential effect”. Moreover, the “toxicity against Caenorhabditis elegans” value in [4] is “lack toxicity”.
`COc1ccc(Cc2nc(NC3=NC(=O)N(C)C3=O)n(C)c2Cc2ccc(O)cc2)cc1` [2j, naamidine A]: in [5] (squamous cell tumors), the “inhibition of epidermal growth factor-stimulated DNA synthesis” value was “potently inhibit”. Besides, in series [6], the “cell cycle arrest of A-431 cells” value is listed as “arrest in the G1 phase”.
With `Nc1nc([C@@H]2c3[nH]c(N)nc3C[C@H](CNC(=O)c3cc(Br)c[nH]3)[C@H]2CNC(=O)c2cc(Br)c(Br)[nH]2)c[nH]1` [2b, bromoageliferin], in series [7], the “calcium entry in PC12 cells” value was “inhibit the calcium entry”.
In the case of `CC(C)CNc1ncc(-c2ccc(Cl)cc2)[nH]1` [compound 22], the “effect on metabolic activity” value in [8] and in series [9] was “slightly enhance” in each case. Besides, the “calcium deposition compared to the solvent control (osteogenic differentiation potential)” value in series [10] and in series [11] was “none of the compounds does negatively affect; also recorded: significantly (p < 0.05) induces” each time. The IC50 in series [12] is 336 µM; in series [13], 172 µM; in series [14], 297 µM; in series [15], 2 µM; in series [19], 0.9 µM. For the same compound, the “C. elegans % survival at 25 µM” value in series [16] is reported as 97.6%. Also, the “effect on C. elegans survival at 100 µM” value in series [16] was “none of the compounds significantly affect”. The “effect on C. elegans survival at 200 µM” value in series [16] is “do not significantly affect survival”. For the same compound, the “effect on proliferation and viability” value in series [17] and in [18] was “do not or only slightly reduce” throughout. Besides, the “survival of cells after 4 weeks of exposure” value in series [17] and in [18] was “allow survival” in each case.
As for dibromoageliferin [2c], in series [7], the “calcium entry in PC12 cells” value is “inhibit the calcium entry”.
In the case of `C/C(=C\c1ccccc1)Cn1cc(CCCCCc2c[nH]c(N)n2)nn1` [2r], the “effect on HaCaT keratinocyte cells” value in [3] was “differential effect”. For the same compound, in series [4], the “toxicity against Caenorhabditis elegans” value is “lack toxicity”.
Turning to `COc1ccc(Cc2[nH]c(=N)n(C)c2Cc2ccc(O)cc2)cc1` [2m, naamine A], the “ability to inhibit EGFR stimulated DNA synthesis” value in series [5] (compared with naamidine A) is “markedly decreased ability to inhibit”.
For `NC[C@H](Cl)[C@@H](O)c1c[nH]c(N)n1` [2a, girolline], in series [20], the “cytotoxicity in vivo against murine-grafted tumors” value is recorded as “significant cytotoxicity”. The “cytotoxicity in vitro against several tumor cell lines” value in series [21] was “significant cytotoxicity”.
Regarding `CCCCCCCCCCCCCNC(=O)CCCc1c[nH]c(N)n1` [2q], the “effect on HaCaT keratinocyte cells” value in series [3] is given as “differential effect”. In series [4], the “toxicity against Caenorhabditis elegans” value is recorded as “lack toxicity”.
With `NC[C@H]1Cc2nc(N)[nH]c2C[C@@H]1CN` [2n], the “cytotoxicity in GH4C1 rat pituitary and N2A mouse neuroblastoma cell lines” value in series [2] was “lack the cytotoxicity”.
Consider `Brc1ccc(-c2cnc(NCCCn3cc(C4CC4)nn3)[nH]2)cc1` [compound 40], for which the “effect on metabolic activity” value in series [8] and in [9] was “slightly enhance” throughout. In addition, the “calcium deposition compared to the solvent control (osteogenic differentiation potential)” value in series [10] and in series [11] was “none of the compounds does negatively affect” in each case. Also, the IC50 in series [12] was 43.9 µM; in series [13], 67.1 µM; in series [14], 33.6 µM; in series [15], 2 µM; in [19], 72 µM and 71.6 µM. Moreover, the “C. elegans % survival at 25 µM” value in series [16] was determined as 82.6%. Further, in [16], the “effect on C. elegans survival at 100 µM” value was “none of the compounds significantly affect”. Also, in series [16], the “effect on C. elegans survival at 200 µM” value is “do not significantly affect survival”. The “effect on proliferation and viability” value in series [17] and in [18] was “do not or only slightly reduce” each time. For the same compound, the “survival of cells after 4 weeks of exposure” value in [17] and in series [18] was “allow survival” throughout.
